{"source": "patent US20240310361A1", "about": "“METHOD OF […] RESPONSE OF CELL GROUP TO TEST SUBSTANCE” (CANON KABUSHIKI KAISHA, priority 2023, published 2024)", "test_system": "PBMCs", "assay": "Calcium-derived fluorescence check of immobilized Fluo-4-stained PBMCs with a calcium ionophore", "assay_type": "cell-based", "settings": "final concentration 1 μg/mL; PBMCs immobilized on BAM-modified glass bottom dish; FIG. 8/9", "procedure": "It is found from FIG. 7 that the PBMCs can be immobilized under a dense state at positions subjected to the BAM modification. […] It was able to be recognized that the cells were immobilized so as to satisfy the condition. In addition, to recognize whether or not fluorescence derived from calcium was able to be observed with the immobilized cells, a calcium ionophore (A23187) was added at a final concentration of 1 μg/mL. […] FIG. 8 is a fluorescence image before the addition of the calcium ionophore, and FIG. 9 is a fluorescence image after the addition.\nIn this Example, the fluorescence images were acquired with an inverted microscope (TE200-U, manufactured by Nikon Corporation), a CCD camera (EM-CCD DIGITAL CAMERA/C9100-13, manufactured by Hamamatsu Photonics K.K.), and a filter set (excitation: from 450 nm to 490 nm, DM: 505 nm, fluorescence: 520 nm).\nFloating PBMCs were recovered from the PBMCs cultured overnight, and 7 mL of PBS was added thereto, followed by centrifugation at 300 G for 8 minutes. The supernatant was removed, and the residue was suspended in 10 mL of PBS, followed by the counting of a cell number. […]", "data": [{"smiles": "CNc1ccc2oc(C[C@H]3O[C@@]4(CC[C@H]3C)O[C@H]([C@H](C)C(=O)c3ccc[nH]3)[C@H](C)C[C@H]4C)nc2c1C(=O)O", "note": "[A23187]", "values": [{"measurement": "fluorescence derived from calcium in immobilized cells", "value": "fluorescence was able to be observed in each of substantially all the immobilized PBMCs"}]}]}
